Test results taken from ChEMBL document CHEMBL1201862, “PubChem BioAssay data set” (2004).
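Protocol summary: plate cells (96-well), add compound at 5 concentrations, incubate 48 h, interpolate endpoints linearly. GI50 is the concentration that inhibits growth by half.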 The source made the active and inactive calls. Rule as the data show it: active = GI50 up to about 1.1 µM and inactive = higher.

Columns and labels:
Assay in all cases: NCI anticancer screen, dose series, 48 h
DLD-1 = system: DLD-1
DMS-114 = system: DMS-114
DMS-273 = system: DMS-273
SNB-78 = system: SNB-78
XF498 = system: XF498
MDA-N = system: MDA-N
NCI/ADR-RES = system: NCI/ADR-RES
MCF7 = system: MCF7

SMILES | GI50 (DLD-1) | GI50 (DMS-114) | GI50 (DMS-273) | GI50 (SNB-78) | GI50 (XF498) | GI50 (MDA-N) | GI50 (NCI/ADR-RES) | GI50 (MCF7)
COC(=O)/C(=N\NC(=O)c1ccccc1O)C(C#N)c1ccccc1 (stereo not given) | 24 µM (inactive) | 15.9 µM (inactive) | 19 µM (inactive) | 23.4 µM (inactive) | 17.3 µM (inactive) |  |  | 
CC(=O)Oc1c2oc3cc(O)c(O)cc3c2c(OC(C)=O)c2oc3cc(O)c(O)cc3c12 [POLYOZELLIN] |  |  |  |  |  | 23.6 µM (inactive) | 35.3 µM (inactive) | 
c1ncn(C23C4C5C6C4C2C6C53)n1 (stereo not given) |  |  |  |  |  | > 100 µM (inactive) | > 100 µM (inactive) | > 100 µM (inactive)
CN(C)Cc1cc(/N=N/c2ccccc2Cl)cc(CN(C)C)c1O |  |  |  |  |  | 29.2 µM (inactive) | 63.7 µM (inactive) | > 100 µM (inactive)
O=S(=O)(O)c1ccc2c(/N=N/c3ccccc3Cl)c(O)ccc2c1 |  |  |  |  |  | > 100 µM (inactive) | > 100 µM (inactive) | 
C/C(=C/CC[C@](C)(OC1OC(CO)C(O)C(O)C1O)[C@H]1CC[C@]2(C)[C@@H]1CC[C@@H]1[C@@]3(C)CC[C@H](O)C(C)(C)[C@@H]3C[C@H](O)[C@]12C)CO (stereo not given in full) |  |  |  |  |  | 24.2 µM (inactive) | 47.4 µM (inactive) | 34.8 µM (inactive)
COc1cc(OC)c(OC)cc1/C=N/NC(=O)N/N=C/c1cc(OC)c(OC)cc1OC |  | > 100 µM (inactive) | > 100 µM (inactive) | > 100 µM (inactive) | 72.4 µM (inactive) |  |  | 
CN1Cc2ccccc2S(=O)(=O)n2cccc2C1=O |  |  |  |  |  | > 100 µM (inactive) |  | > 100 µM (inactive)
CCOc1ccc(C(c2c(O)c3ccccc3oc2=O)c2c(O)c3ccccc3oc2=O)cc1 |  |  |  |  |  | 60 µM (inactive) | 98.6 µM (inactive) | 46.6 µM (inactive)
O=c1c2ccccc2n2n1CC(O)C2 (stereo not given) | > 100 µM (inactive) |  | > 100 µM (inactive) | 9.35 µM (inactive) | > 100 µM (inactive) |  |  | 
CCOC(=O)Nn1c(CC#N)nnc1Cc1ccccc1 |  |  |  |  |  | > 100 µM (inactive) | > 100 µM (inactive) | > 100 µM (inactive)
CC1(C)CC[C@]2(C(=O)O)CC[C@]3(C)[C@H](C(=O)C=C4[C@@]5(C)C=C(C#N)C(=O)C(C)(C)[C@@H]5CC[C@]43C)[C@@H]2C1 [BARDOXOLONE] |  |  |  |  |  |  | 0.993 µM (active) | 0.265 µM (active)
O=S(=O)(c1ccccc1)n1c2ccc(Br)cc2c2nc3ccccc3nc21 |  |  |  |  |  | > 100 µM (inactive) | > 100 µM (inactive) | 
CC(C)(C)c1ccc(O)c(CN(Cc2c(O)ccc3ccccc23)C2CCCCC2)c1 |  |  |  |  |  | 15.5 µM (inactive) | 16.3 µM (inactive) | 17.1 µM (inactive)
COC(=O)c1ccccc1C1CN=NC12Cc1ccc(C)cc1C2=O (stereo not given) |  |  |  |  |  | 27.7 µM (inactive) | 36.6 µM (inactive) | 72.8 µM (inactive)
C/C=C/[C@H]1O[C@@](OC)([C@@H](C)[C@H](O)[C@H](C)[C@H]2OC(=O)/C(OC)=C/C(C)=C/[C@@H](C)[C@@H](O)[C@@H](C)[C@@H](O)[C@H](C)C/C(C)=C/C=C/[C@@H]2OC)CC(OC2CC(O)C(OC(N)=O)C(C)O2)[C@@H]1C (stereo not given in full) |  |  |  |  |  | < 0.01 µM (active) | 0.0953 µM (active) | < 0.01 µM (active)
CC(C)=CCC/C(C)=C/C=C/C(C)=C/C=C/C(C)=C/C=C/C=C(C)/C=C/C=C(C)/C=C/[C@H]1C(C(C)(C)O)CC[C@]1(C)O (stereo not given in full) |  |  |  |  |  | 25.1 µM (inactive) | 32.4 µM (inactive) | 16.4 µM (inactive)
CC(/C=C/c1ccccc1)=N\N=C(C)\C=C\c1ccccc1 | > 100 µM (inactive) |  | > 100 µM (inactive) | > 100 µM (inactive) | > 100 µM (inactive) |  |  | 
Oc1ccc(I)c2cccnc12 | 3.99 µM (inactive) |  | 2.04 µM (inactive) | 56.9 µM (inactive) | 38.9 µM (inactive) |  |  | 
CC(C)[C@H]1NC(=O)[C@H]2N=C(S[C@H]2C)[C@@H]2CCCN2C(=O)[C@H](Cc2ccccc2)NC(=O)[C@@H]2CSC(=N2)[C@@H](Cc2ccccc2)NC(=O)[C@@H]2CSC1=N2 |  |  |  |  |  | 30.2 µM (inactive) | 19.7 µM (inactive) | 19.1 µM (inactive)
Cc1nc2c(O)nc3ccccc3c2o1 |  |  |  |  |  | > 100 µM (inactive) | > 100 µM (inactive) | > 100 µM (inactive)
CC(C)/C(Cl)=N\OC(NC(=O)P(=O)(c1ccccc1)c1ccccc1)(C(F)(F)F)C(F)(F)F |  |  |  |  |  | 19.5 µM (inactive) | 12.8 µM (inactive) | 13.3 µM (inactive)
CC(=O)OCCn1cnc2c(NCC=C(C)C)ncnc21 |  |  |  |  |  | > 100 µM (inactive) | > 100 µM (inactive) | > 100 µM (inactive)
N#Cc1nc(C#N)n(S(=O)(=O)c2ccccc2)c1NS(=O)(=O)c1ccccc1 |  |  |  |  |  | > 100 µM (inactive) | > 100 µM (inactive) | > 100 µM (inactive)
Cc1cccc(/C=N/NC(=S)NC2CCCCC2)n1 |  |  |  |  |  | 28.4 µM (inactive) | 11.9 µM (inactive) | 11.4 µM (inactive)
CCOC(=O)C(NC(=O)OC(C)(C)C)C(=O)OCC |  |  |  |  |  |  | > 100 µM (inactive) | > 100 µM (inactive)
Cc1ccc(-c2nc(N/N=C/c3ccc(O)cc3)c3ccccc3n2)cc1 |  |  |  |  |  | 7.87 µM (inactive) | 20.4 µM (inactive) | 10.2 µM (inactive)
CCN(CC)CC[n+]1ccc2c(C)c3[nH]c4ccccc4c3c(C)c2c1 | 1.87 µM (inactive) |  | 0.338 µM (active) |  |  | 0.675 µM (active) |  | 0.522 µM (active)
